# Key:
# [1] = biological target: T1, human A2a adenosine receptor (Homo sapiens, UniProt P29274); test: A2a binding affinity using radioligand binding, Method (A); details: Method (A): [3H]SCH58261 filtration binding, membranes expressing human A2a
# T1 construct: purchased Perkin Elmer RBHA2aM400UA; host or cells: HEK293 or CHO cells (recombinant expression)
# Method in brief: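 Filtration binding used human A2a membranes from HEK293 or CHO cells, preincubated with compound 15–30 min. [3H]SCH58261 (diluted to 4 nM) was then added in Tris pH 7.4, MgCl2, Tween20 buffer, with 60 min at room temperature. Non-specific binding was defined by 1 μM ZM241385, and IC50 came from a 4-parameter logistic fit.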
# [2] = biological target: T2, human A2b adenosine receptor (Homo sapiens, UniProt P29275); test: A2b binding affinity, radioligand filtration binding assay; details: tritiated proprietary A2b antagonist, HEK293 membranes expressing human A2b
# T2 construct: purchased Perkin Elmer ES-013-C; host or cells: HEK293 cells recombinantly expressing the receptor; membranes made from them
# T2 sequence (P29275 1-332): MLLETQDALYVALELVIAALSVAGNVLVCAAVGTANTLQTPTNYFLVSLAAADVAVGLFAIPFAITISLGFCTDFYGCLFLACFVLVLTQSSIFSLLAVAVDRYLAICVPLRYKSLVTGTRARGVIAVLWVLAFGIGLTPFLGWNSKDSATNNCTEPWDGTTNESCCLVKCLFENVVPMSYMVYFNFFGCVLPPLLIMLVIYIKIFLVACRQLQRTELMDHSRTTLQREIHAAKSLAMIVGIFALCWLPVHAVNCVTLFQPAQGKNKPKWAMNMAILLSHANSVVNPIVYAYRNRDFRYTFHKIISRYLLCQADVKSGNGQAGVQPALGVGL
# Method in brief: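 Membranes from HEK293 cells expressing human A2b were preincubated with compound 15–30 min at room temperature, then incubated 60 min at room temperature with a tritiated proprietary A2b antagonist in PBS pH 7.4 without Mg/Ca. Non-specific binding defined with 20 μM NECA; filter-bound radioactivity counted and IC50 fitted by 4-parameter logistic.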
# [3] = biological target: T1, human A2a adenosine receptor; test: A2a binding affinity using SPA, Method (B); details: Method (B): [3H]SCH58261 SPA, membranes expressing human A2a
# Excerpt: Method (A) describes the procedure used to measure A2a binding affinity using radioligand binding. Method (B) describes the procedure used to measure A2a binding affinity using SPA technology. The method used to measure A2b binding affinity is also described below. The method used to determine the A2a IC50 value reported for each compound in the table is indicated next to the reported value. The A2b IC50 value measured using the A2b binding affinity assay is shown in the table next to the compound under the corresponding A2a value.
# The A2a receptor affinity binding assay measured the amount of binding of a tritiated ligand with high affinity for the A2a adenosine receptor to membranes made from HEK293 or CHO cells recombinantly expressing the human A2a adenosine receptor, in the presence of varying concentrations of a compound of the invention. The data were generated using either filtration binding or a homogenous scintillation proximity assay (SPA).
# Method (B): Measurement of A2a Binding Affinity Using SPA
# Binding affinity using SPA was conducted as follows. Test compounds (50 nL) were dispensed into individual wells of a 384-well OptiPlate™ well (Perkin Elmer) by Echo® acoustic liquid transfer (Labcyte). 20 μL of 1.25 nM [^3H] SCH58261 ((7-(2-phenylethyl)-5-amino-2-(2-furyl)-pyrazolo-[4,3-e]-1,2,4-triazolo[1,5-c]pyrimidine)) in DPBS assay buffer (Dulbecco's phosphate buffered saline without calcium and magnesium, ThermoFisher Scientific, Cat. No. A1285601) supplemented with 10 mM MgCl2 was added. A2a receptor-expressing membranes were incubated with 20 μg/mL adenosine deaminase (Roche, Cat. No. 10 102 105 001) for 15 minutes at room temperature. The receptor-expressing membranes were then combined with wheat germ agglutinin-coated yttrium silicate SPA beads (GE Healthcare, Cat. No. RPNQ0023) in a ratio of […] (w/w) and incubated for 30 minutes at room temperature. 30 μL of the membrane/bead mixture (0.25 μg and 25 μg per well respectively) were added to the 384-well OptiPlate™ well. To define total and non-specific binding, wells containing 1% DMSO or 1 μM CGS15943 (Tocris Bioscience, Cat. No. 1699) respectively were also included in the experiment. The plate was incubated for one hour at room temperature with agitation. The assay plate was then incubated for an hour to allow the beads to settle before data were collected using a TopCount® (Perkin Elmer) scintillation counter. After normalization to total and non-specific binding, the percent effect at each compound concentration was calculated. The plot of percent effect versus the log of compound concentration was analyzed electronically using a 4-parameter logistic fit based on the Levenberg-Marquardt algorithm to generate IC50 values.
# T1 sequence (P29274 whole entry): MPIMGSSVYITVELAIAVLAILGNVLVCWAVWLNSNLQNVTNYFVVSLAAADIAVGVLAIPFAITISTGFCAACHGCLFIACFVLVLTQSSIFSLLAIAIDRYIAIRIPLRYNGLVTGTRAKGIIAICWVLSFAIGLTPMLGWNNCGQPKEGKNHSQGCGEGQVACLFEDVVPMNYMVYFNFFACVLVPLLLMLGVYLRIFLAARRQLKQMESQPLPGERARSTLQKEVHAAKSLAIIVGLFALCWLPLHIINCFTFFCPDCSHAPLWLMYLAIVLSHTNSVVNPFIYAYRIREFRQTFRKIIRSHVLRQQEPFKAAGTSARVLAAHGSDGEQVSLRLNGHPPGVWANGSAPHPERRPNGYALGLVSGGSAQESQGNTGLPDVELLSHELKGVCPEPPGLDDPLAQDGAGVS
Structure (SMILES),IC50 [1],IC50 [2],IC50 [3]
"Cc1c(-c2ncco2)nc(N)n2nc([C@@H]3CCCN(c4cnn(C5CCOCC5)c4)C3)nc12 [Example 3.6, (R)-8-methyl-7-(oxazol-2-yl)-2-(1-(1-(tetrahydro-2H-pyran-4-yl)-1H-pyrazol-4-yl)piperidin-3-yl)-[1,2,4]triazolo[1,5-c]pyrimidin-5-amine]",0.9 nM,389 nM,–
"Cc1c(-c2ncco2)nc(N)n2nc([C@@H]3CCCN(c4cnn(CC(C)(C)O)c4)C3)nc12 [Example 3.7, (R)-1-(4-(3-(5-amino-8-methyl-7-(oxazol-2-yl)-[1,2,4]triazolo[1,5-c]pyrimidin-2-yl)piperidin-1-yl)-1H-pyrazol-1-yl)-2-methylpropan-2-ol]",4.7 nM,224 nM,–
"Cc1c(-c2ncco2)nc(N)n2nc([C@@H]3CCCN(c4cnn(CC5(O)CCC5)c4)C3)nc12 [Example 3.8, (R)-1-((4-(3-(5-amino-8-methyl-7-(oxazol-2-yl)-[1,2,4]triazolo[1,5-c]pyrimidin-2-yl)piperidin-1-yl)-1H-pyrazol-1-yl)methyl)cyclobutan-1-ol]",2.7 nM,191 nM,–
"Cc1nn(CC(C)(C)O)cc1N1CCC[C@@H](c2nc3c(C)c(-c4ncco4)nc(N)n3n2)C1 [Example 3.9, (R)-1-(4-(3-(5-amino-8-methyl-7-(oxazol-2-yl)-[1,2,4]triazolo[1,5-c]pyrimidin-2-yl)piperidin-1-yl)-3-methyl-1H-pyrazol-1-yl)-2-methylpropan-2-ol]",0.1 nM,553 nM,–
"Cc1c(-c2ncco2)nc(N)n2nc([C@@H]3CCCN(c4cnn(CC(C)(C)O)c4C)C3)nc12 [Example 3.10, (R)-1-(4-(3-(5-amino-8-methyl-7-(oxazol-2-yl)-[1,2,4]triazolo[1,5-c]pyrimidin-2-yl)piperidin-1-yl)-5-methyl-1H-pyrazol-1-yl)-2-methylpropan-2-ol]",2.1 nM,535 nM,–
"Cc1c(-c2cccc(F)c2)nc(N)n2nc([C@@H]3CCCN(c4cnn(CC(C)(C)O)c4)C3)nc12 [Example 3.11, (R)-1-(4-(3-(5-amino-7-(3-fluorophenyl)-8-methyl-[1,2,4]triazolo[1,5-c]pyrimidin-2-yl)piperidin-1-yl)-1H-pyrazol-1-yl)-2-methylpropan-2-ol]",29.2 nM,542 nM,–
"Cc1c(-c2ncco2)nc(N)n2nc([C@@H]3CCCN(c4cnn(C(C)C)c4)C3)nc12 [Example 3.12, (R)-2-(1-(1-isopropyl-1H-pyrazol-4-yl)piperidin-3-yl)-8-methyl-7-(oxazol-2-yl)-[1,2,4]triazolo[1,5-c]pyrimidin-5-amine]",1.2 nM,167 nM,–
"Cc1cc(N2CCC[C@@H](c3nc4c(C)c(-c5ncco5)nc(N)n4n3)C2)cnc1OC(F)F [Example 3.13, (R)-2-(1-(6-(difluoromethoxy)-5-methylpyridin-3-yl)piperidin-3-yl)-8-methyl-7-(oxazol-2-yl)-[1,2,4]triazolo[1,5-c]pyrimidin-5-amine]",1.6 nM,149 nM,–
"Cc1cc(N2CCC[C@@H](c3nc4c(C)c(-c5ncco5)nc(N)n4n3)C2)cn(C(F)F)c1=O [Example 3.14, (R)-5-(3-(5-amino-8-methyl-7-(oxazol-2-yl)-[1,2,4]triazolo[1,5-c]pyrimidin-2-yl)piperidin-1-yl)-1-(difluoromethyl)-3-methylpyridin-2(1H)-one]",0.2 nM,116 nM,–

# Results, then the compound that gave them:
IC50 [1],IC50 [2],IC50 [3],Structure (SMILES)
–,–,81.7 nM,"Nc1nc(-c2ccccc2)c(C2CC2)c2nc([C@@H]3CCCN(CC(F)(F)F)C3)nn12 [Example 5.5, (R)-8-cyclopropyl-7-phenyl-2-(1-(2,2,2-trifluoroethyl)piperidin-3-yl)-[1,2,4]triazolo[1,5-c]pyrimidin-5-amine]"
–,–,1030 nM,"CC(C)(O)c1c(-c2ccccc2)nc(N)n2nc([C@@H]3CCCN(CC(F)(F)F)C3)nc12 [Example 6.5, (R)-2-(5-amino-7-phenyl-2-(1-(2,2,2-trifluoroethyl)piperidin-3-yl)-[1,2,4]triazolo[1,5-c]pyrimidin-8-yl)propan-2-ol]"
–,–,65.8 nM,"C=C(C)c1c(-c2ccccc2)nc(N)n2nc([C@@H]3CCCN(CC(F)(F)F)C3)nc12 [Example 7.3, (R)-7-phenyl-8-(prop-1-en-2-yl)-2-(1-(2,2,2-trifluoroethyl)piperidin-3-yl)-[1,2,4]triazolo[1,5-c]pyrimidin-5-amine]"
–,–,10.9 nM,"Nc1nc(-c2ccccc2)cc2nc([C@@H]3CCCN(CC(F)F)C3)nn12 [Example 9.2, (R)-2-(1-(2,2-difluoroethyl)piperidin-3-yl)-7-phenyl-[1,2,4]triazolo[1,5-c]pyrimidin-5-amine]"
